Measured values as given in patent US20210128528A1, “USE OF 5HT2A INVERSE AGONISTS FOR TREATING PSYCHOSIS” (Axovant Sciences GmbH, priority 2017, published 2021).

Key:
[1] = biological target: T1, 5HT2A receptor (h5HT2A-Dx-U2OS cells) (Homo sapiens, UniProt P28223); assay: cell-based
T1 construct: beta-galactosidase enzyme fragment for complementation (the print says only EFC; from my own knowledge of PathHunter it is the ProLink tag on the receptor's C-terminus); host or cells: U2OS (h5HT2A-Dx-U2OS)
Procedure: Cells were incubated with nelotanserin or clozapine for 90 minutes at 37° C. followed by addition of DiscoverX detection reagent for 60 minutes, after which luminescence was measured.
Drug treatment was performed for 90 minutes at 37 degrees Celsius followed by addition of DiscoverX detection reagent for 60 minutes at room temperature, after which luminescence was measured.
Cells were incubated with nelotanserin or clozapine for 90 minutes at 37° C. followed by addition of DiscoveRx detection reagent for 60 minutes, after which luminescence was measured.

C57Bl/6J male mice [2] = assay: DOI-induced head twitch response in mice; type: in vivo; details: Mus musculus
C57Bl/6J male mice [3] = assay: PCP-induced hyperlocomotion in open field activity monitors; type: in vivo; details: Mus musculus
Procedure: PCP-induced hyperlocomotion was measured in open field activity monitor chambers. […] All studies were performed in a blinded and randomized manner and potencies were calculated. Clozapine was used as the basis for comparison.
The data depicted in FIGS. 2-5, summarizes Mouse data—Male C57BL6J mice from JAX ˜12 weeks old. Studies were randomized and investigator was blinded. The figures contain three ways of analyzing the data obtained from the Versamax open field activity monitors on the same cohort of mice. The infrared beams in the chambers measure breaks in X, Y, and Z planes. Typically data are reported for Horizontal beam breaks and sometimes for distance travelled and stereotypy in studies involving PCP.
Male C57BL6 mice from JAX were used at 12-15 weeks of age, n=6 for all conditions). All mice were naïve at the time of testing. […] Mice were then treated with 0.9% saline (i.p.) or PCP (10 mg/kg, i.p.) and monitored for an additional 60 minutes. All measurements were recorded by VersaMax software, and experimenter was blinded to treatment. The summary figure is a compilation of distance travelled over the last 60 minutes with drug treatment. […] Data analyzed via two-way ANOVA followed by Sidak post hoc test to assess statistical differences between animals which received saline of PCP following nelotanserin, clozapine, or vehicle.
Male C57BL6 mice from JAX were used at 12-15 weeks of age, n=6 for all conditions). All mice were naïve at the time of testing. […] Mice were then treated with 0.9% saline (i.p.) or PCP (10 mg/kg, i.p.) and monitored for an additional 60 minutes. All measurements were recorded by VersaMax software, and experimenter was blinded to treatment. The summary figure is a compilation of the sum of beam breaks (X, Y plane) monitored over the last 60 minutes. […] Data analyzed via two-way ANOVA followed by Sidak post hoc test to assess statistical differences between animals which received saline of PCP following nelotanserin, clozapine, or vehicle.
Male C57BL6 mice from JAX were used at 12-15 weeks of age, n=6 for all conditions). All mice were naïve at the time of testing. […] Mice were then treated with 0.9% saline (i.p.) or PCP (10 mg/kg, i.p.) and monitored for an additional 60 minutes. All measurements were recorded by VersaMax software, and experimenter was blinded to treatment. The summary figure is a compilation of the sum of beam breaks (X, Y, Z stereotypy measures) monitored over the last 60 minutes. […] Data analyzed via two-way ANOVA followed by Sidak post hoc test to assess statistical differences between animals which received saline of PCP following nelotanserin, clozapine, or vehicle.

[4] = system: serotonin-induced intracellular calcium release; assay: serotonin-induced intracellular calcium release assay; type: cell-based; details: FIG. 6
5HT2C = biological target: T2, 5HT2C (Homo sapiens, UniProt P28335); assay: selectivity of 5HT2A inverse agonist over 5HT2C; details: 5HT2A over 5HT2C
T2 sequence (P28335 33-458): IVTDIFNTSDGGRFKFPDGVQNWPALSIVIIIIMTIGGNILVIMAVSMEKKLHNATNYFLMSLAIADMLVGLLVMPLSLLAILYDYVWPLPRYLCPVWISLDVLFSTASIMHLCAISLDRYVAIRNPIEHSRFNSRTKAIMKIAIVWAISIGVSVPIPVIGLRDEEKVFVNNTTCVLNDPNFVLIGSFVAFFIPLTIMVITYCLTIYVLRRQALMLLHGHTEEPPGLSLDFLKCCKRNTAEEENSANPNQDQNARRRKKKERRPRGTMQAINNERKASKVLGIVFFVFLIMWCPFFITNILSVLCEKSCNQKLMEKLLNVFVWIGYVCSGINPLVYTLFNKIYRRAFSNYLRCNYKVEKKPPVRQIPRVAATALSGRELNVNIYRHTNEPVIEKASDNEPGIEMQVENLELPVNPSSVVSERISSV

[5] = system: panel of 66 receptors and ion channels; assay: panel of 66 receptors and ion channels
[6] = compound alone, βarrestin2 recruitment

T1 sequence (P28223 whole entry, the tested form may be a part): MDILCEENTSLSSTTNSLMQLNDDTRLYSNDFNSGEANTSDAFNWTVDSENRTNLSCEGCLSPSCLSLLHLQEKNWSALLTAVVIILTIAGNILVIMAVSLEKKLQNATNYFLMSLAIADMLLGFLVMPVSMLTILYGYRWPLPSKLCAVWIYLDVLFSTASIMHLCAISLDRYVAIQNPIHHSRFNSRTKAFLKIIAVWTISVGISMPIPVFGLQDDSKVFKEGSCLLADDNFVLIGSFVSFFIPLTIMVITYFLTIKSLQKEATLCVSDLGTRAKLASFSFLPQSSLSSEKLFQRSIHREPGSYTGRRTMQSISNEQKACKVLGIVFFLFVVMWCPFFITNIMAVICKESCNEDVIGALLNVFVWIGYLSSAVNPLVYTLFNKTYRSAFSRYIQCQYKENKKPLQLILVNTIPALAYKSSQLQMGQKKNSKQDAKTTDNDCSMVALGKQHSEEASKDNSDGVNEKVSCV

| % Max of 5HT [1, 6] | EC50 [1] | Fold [1, 6] | IC50 ([1]; serotonin-induced, h5HT2A-Dx-U2OS cells, 90 minutes at 37° C., read-out: IC50 (SEM), antagonist of the recruitment of β-arrestin 2 to the 5HT2A receptor) | selectivity over 5HT2C (5HT2C) | activity in a panel of 66 receptors and ion channels [5] | Compound | ED50 (C57Bl/6J male mice [2]; read-out: ED50 (95% CL), block of DOI-induced head twitches) | ED50 (C57Bl/6J male mice [2]; read-out: ED 50 (95% confidence limits), DOI-induced head twitch of FIG. 5) | ED50 (C57Bl/6J male mice [3]; ip, 1 h, beam breaks X, Y, Z, nelotanserin 1-10 mg/kg i.p., PCP 10 mg/kg i.p., last 60 minutes, read-out: ED 50 (95% confidence limits), stereotypy counts of FIG. 4) | ED50 (C57Bl/6J male mice [3]; ip, 1 h, horizontal beam breaks (X, Y plane), nelotanserin 1-10 mg/kg i.p., PCP 10 mg/kg i.p., last 60 minutes, read-out: ED 50 (95% confidence limits), beam breaks data of FIG. 3) | ED50 (C57Bl/6J male mice [3]; ip, 1 h, nelotanserin 1-10 mg/kg i.p., PCP 10 mg/kg i.p., last 60 minutes, read-out: ED 50 (95% confidence limits), total distance traveled data of FIG. 2) | ED50 (C57Bl/6J male mice [3]; i.p., 30 minutes before PCP 10 mg/kg i.p., read-out: ED50 (95% CL), inhibition of PCP-induced hyperlocomotor activity) | serotonin-induced intracellular calcium release [4] | potency relative to pimavanserin or clozapine, intracellular calcium release ([4]; serotonin-induced) |
| --- | --- | --- | --- | --- | --- | --- | --- | --- | --- | --- | --- | --- | --- | --- |
| 98.20% | – | – | – | – | – | NCCc1c[nH]c2ccc(O)cc12 [Compound 5HT, serotonin, reference compound] | – | – | – | – | – | – | – | – |
| −2.21% | 3.74 nM | 0.90 Fold | 3.74 nM | 80 fold | inactive | COc1ccc(NC(=O)Nc2ccc(F)cc2F)cc1-c1c(Br)cnn1C [Nelotanserin, nelotanserin] | 2.4 mg/kg | 2.4 mg/kg | 3.8 mg/kg | 4.3 mg/kg | 3 mg/kg | 3 mg/kg | inhibited | about 2 fold |
